# Values of other authors as cited in patent US20250144015A1, “Pharmaceutical Compositions” (Extrovis AG, priority 2023, published 2025).
# System: opioid craving
# Conditions: single high dose of 16 mg or 32 mg; opioid-dependent patients
smiles,measurement,value
"CO[C@@]12CC[C@@]3(C[C@@H]1[C@](C)(O)C(C)(C)C)C1Cc4ccc(O)c5c4[C@@]3(CCN1CC1CC1)[C@H]2O5 [buprenorphine, [5α,7α(S)]-17-(Cyclopropylmethyl)-α-(1,1-dimethylethyl)-4,5-epoxy-18,19-dihydo-3-hydroxy-6-methoxy-α-methyl-6,14-ethenomorphinan-7-methanol]",Effect on opioid craving,reduce opioid craving
